One assay concerns MCP-1 promoter. In words: MCP-1 promoter activity in transfected SMC and COS cells. Conditions: 400 bp promoter fragment. In kind it is cell-based. The procedure:
(§1) Methods and Results. Smooth muscle cells (SMC) were isolated from normal rabbit aortae by explant method. Cells were then exposed to oxidized LDL (30 μg/ml) (which is known to induce vascular cells to synthesize MCP-1). […] All of these effects of oxidized LDL cholesterol were reduced by previous exposure of the SMC to the NO-donor DETA-NONOate (100 μM) (p<0.05). To determine if NO exerted its effect at a transcriptional level, SMC and COS cells were transfected with a 400 bp fragment of the MCP-1 promoter. Enhanced promoter activity by oxLDL was inhibited by DETA-NO.

Assay [1] deals with Smooth muscle cells (SMC). As to the kind of experiment: Oxidized LDL-exposed aortic smooth muscle cells: MCP-1, superoxide anion, NFκB. The following applies: DETA-NONOate 100 μM pre-exposure, oxLDL 30 μg/ml. In kind it is cell-based, rabbit. As to the method:
as §1

Assay [2] deals with hypercholesterolemic rabbits. In words: Oral L-lysine in cholesterol-fed rabbits: vasorelaxation and histomorphometry. In kind it is in vivo, rabbit. Conditions: ten weeks. The source says:
FIG. 9 is a set of dose-response curves showing the effect of chronic lysine administration on endothelium dependent vasodilation in hypercholesterolemic rabbits. […] Chronic administration of lysine was just as effective as arginine in restoring vascular function and structure. (See Ex. 14)
L-lysine is a basic amino acid like L-arginine, but is not known to be metabolized by NO synthase to NO. Therefore, the following results were unexpected. New Zealand white rabbits were fed a normal or high cholesterol chow (n=18). Half of the animals on the cholesterol diet also received oral L-lysine. After ten weeks, the thoracic aortae were harvested and bioassayed for vascular NO synthesis, and histomorphometry to assess lesion formation was performed as described above.

Assay [3] concerns human aortic endothelial cells (HAEC). In words: Flow-exposed human aortic endothelial cells: THP-1 monocyte binding after oxLDL or LPS/TNF. It is filed as cell-based. The following applies: oxLDL 30 μg/ml. The procedure: FIG. 6. Stimulation of cultured endothelial cells with fluid flow causes them to secrete nitric oxide. Flow-induced secretion of nitric oxide decreases endothelial adhesiveness induced by oxidized LDL cholesterol (oxLDL; 30 μg/ml). Exposure of human aortic endothelial cells to oxLDL increased the ex vivo binding of monocytes when compared to Control. In comparison to cells not exposed to flow (static), previous exposure to flow inhibited the monocyte adhesion induced by oxLDL. These effects of flow were blocked by NO synthase inhibitors and mimicked by NO donors (PAPA-NO) or cyclic GMP (cGMP). Bars represent mean±SEM. *p<0.05; **p<0.01. (See Ex. 8)
Methods and Results: Confluent monolayers of human aortic endothelial cells (HAEC) were exposed to static or fluid flow conditions for 4 hours (fluid flow stimulates the production of endogenous nitric oxide). Medium was then replaced and cells were then incubated with native LDL (50 μg/ml), oxidized LDL (30 μg/ml), or LPS (10 ng/ml)+TNF-α (10 U/ml) for an additional 4 hours. Functional binding assays utilizing THP-1 monocytes were then performed. Superoxide production by HAECs was monitored by lucigenin chemiluminescence and expression of the adhesion molecules VCAM-1 and ICAM-1 was quantitated by flow cytometry. […] Previous exposure to fluid flow inhibited endothelial adhesiveness for monocytes (FIG. 6) and the other sequelae of exposure to cytokines or oxidized lipoprotein.

The test system of assay [4] is hypercholesterolemic rabbits. The following applies: vs 1% cholesterol diet alone, ten weeks. The source says:
At ten weeks animals were sacrificed for studies of platelet and vascular reactivity, and histomorphometry.

The test system of the next assay is platelets. In words: ADP-initiated platelet aggregation (nephelometry), platelets from treated rabbits. It is filed as in vivo, rabbit. The following applies: N-methylarginine 10^−4 M in vitro. As to the method:
The effect of L-arginine supplementation on platelet reactivity in rabbits that had normal chow (Control; n=6), a 1% cholesterol diet (Chol; n=5), or a 1% cholesterol diet supplemented with oral arginine (Arg; n=6), as detailed above, was examined. Arterial blood obtained after central ear artery cannulation was anticoagulated with 13 mM sodium citrate. Platelet-rich suspension was prepared by washing platelets in calcium-free Krebs-Henseleit solution and resuspending them in Tyrode's solution with albumin. Aggregation was initiated by addition of adenosine diphosphate and monitored by standard nephelometric techniques. In platelets derived from Chol animals, aggregation was not different in rate or maximum extent in comparison to platelets from Control animals (A, in FIG. 2). By contrast, aggregation of platelets from Arg animals was reduced by 50% (B, in FIG. 2).
Therefore, the anti-platelet effect of chronic oral arginine administration can be credited to an increased synthesis of endogenous NO. Furthermore, NO synthesis may be induced in both the platelets and the endothelium.

Consider 6 compounds from patent US6646006B2, “Enhancement of vascular function by modulation of endogenous nitric oxide production or activity” (The Board of Trustees of the Leland Stanford Junior …, priority 1993, dated 2003).

With `NCCN(CCN)/[N+]([O-])=N/O` [DETA-NONOate], the “MCP-1 promoter activity enhanced by oxLDL” value in the assay with MCP-1 promoter is listed as “inhibited”. In addition, in assay [1], the “activity of NFκB induced by oxidized LDL” value is listed as “reduced”, the “expression of MCP-1 induced by oxidized LDL” value is given as “reduced” and the “generation of superoxide anion induced by oxidized LDL” value was “reduced”.
In the case of `NCCCC[C@H](N)C(=O)O` [L-lysine], in assay [2], the “vascular NO activity (endothelium-dependent vasorelaxation)” value is recorded as “just as effective as L-arginine” and the “vascular lesion formation / plaque area” value is given as “marked reduction”. The “vascular NO activity (endothelium-dependent vasorelaxation)” value in assay [2] (listed as lysine) was “improved”.
As to `CCCN(CCCN)/[N+]([O-])=N/O` [PAPA-NONOate], the “mimicry of the effects of flow on monocyte adhesion” value is on record as “mimicked the effects of flow” in assay [3] and “mimicked” in assay [3] (listed as PAPA-NO).
As to `CSCC[C@H](N)C(=O)O` [methionine], in assay [4], the endothelium-dependent relaxation entry was “not different”, the intimal thickness entry is given as “not different” and the platelet aggregation result is “not different”.
As for `Nc1nc2c(ncn2[C@@H]2O[C@@H]3COP(=O)(O)O[C@H]3[C@H]2O)c(=O)[nH]1` [cGMP, cyclic guanosine monophosphate], the “mimicry of the effects of flow on monocyte adhesion” value in assay [3] is “mimicked”.
Consider `CN[C@@H](CCCNC(=N)N)C(=O)O` [N-methylarginine, reference compound], for which the “reversal of the arginine-induced reduction of platelet reactivity” value was “could be reversed” in the assay with platelets and “reverses” in the assay on platelets (listed as LNMMA).
